Experimental data published in patent publication US6770287B1, “Biocidal cellulosic material” (The Regents of the University of California, priority 2000, dated 2004).

How the values were obtained:
S. aureus = experiment: AATCC Test Method 100 quantitative antibacterial test (bacterial reduction); assay type: cell-based, Staphylococcu aureus (ATCC 5368); settings: contact time 60 min
Source text: (§1) AATCC Test Method 100 was adopted in this study. According to this test method, four pieces of staked circular fabric swatches 4.8±0.1 (about one grams) were inoculated with 1.0±0.1 milliliter of inoculum in a 250 milliliter jar. The inoculum was a nutrient broth culture containing over 1.0×10^6 clone forming units (CFU) of organisms. After the swatches were inoculated, they were neutralized by 100 milliliter of a 0.02% sodium thiosulfate solution in the jar. The contact time was the time between inoculation and neutralization. The jar was vigorously shaken and the neutralized solution was diluted in serial. The dilutions, usually 100, 101, and 102, were plated on nutrient agar and incubated for 18-24 hours at 37° C. The number of bacteria recovered from the inoculated finished fabrics was counted and compared with that from untreated fabrics. Six log reduction means the total inactivation of bacteria, and one log reduction means that finished fabrics reduced bacteria counts from 106 CFU to 105 CFU.
(§2) Finished fabrics prepared from solutions containing 1%-6% of monomethylol-5,5-dimethylhydantoin following the protocol set forth in Example 1 with pickup rates below 1% have been tested.
(§3) Fabrics finished in accordance with the protocol set forth in Example II with Anti-2, i.e., 1,3-dimethylol-5,5-dimethylhydantoin, were also tested with AATCC test method 100, which was briefly described in Example IV. In the tests, a diluted CLOROX® solution containing 0.01 % active chlorine was used to chlorinate the finished fabrics.

E. coli = experiment: as above; assay type: cell-based, Escherichia coli (ATCC 2666); settings: contact time 60 min
Source text: as §1, §2, §3

[1] = Anti-2 2%, #400, last column pair
[2] = Anti-2 2%, #7409, last column pair
[3] = Anti-2 6%, #400, last column pair
[4] = Anti-2 6%, #7409, last column pair
[5] = Anti-2 10%, #400, last column pair
[6] = Anti-2 10%, #7409, last column pair

CC1(C)C(=O)N(CO)C(=O)N1CO [Anti-2, 1,3-dimethylol-5,5-dimethylhydantoin]
6 log: Durable Antibacterial Properties After fifteen washes S. aur. (S. aureus; Anti-2 2%, #400) | Durable Antibacterial Properties After five washes S. aur. (S. aureus; Anti-2 2%, #400) | Durable Antibacterial Properties After ten washes S. aur. (S. aureus; Anti-2 2%, #400) | Durable Antibacterial Properties After twenty washes S. aur. (S. aureus; Anti-2 2%, #400) | Durable Antibacterial Properties After twenty washes S. aur. (S. aureus; [1]) | Durable Antibacterial Properties After fifteen washes S. aur. (S. aureus; Anti-2 2%, #7409) | Durable Antibacterial Properties After five washes S. aur. (S. aureus; Anti-2 2%, #7409) | Durable Antibacterial Properties After ten washes S. aur. (S. aureus; Anti-2 2%, #7409) | Durable Antibacterial Properties After twenty washes S. aur. (S. aureus; Anti-2 2%, #7409) | Durable Antibacterial Properties After twenty washes S. aur. (S. aureus; [2]) | Durable Antibacterial Properties After fifteen washes S. aur. (S. aureus; Anti-2 6%, #400) | Durable Antibacterial Properties After five washes S. aur. (S. aureus; Anti-2 6%, #400) | Durable Antibacterial Properties After ten washes S. aur. (S. aureus; Anti-2 6%, #400) | Durable Antibacterial Properties After twenty washes S. aur. (S. aureus; Anti-2 6%, #400) | Durable Antibacterial Properties After twenty washes S. aur. (S. aureus; [3]) | Durable Antibacterial Properties After fifteen washes S. aur. (S. aureus; Anti-2 6%, #7409) | Durable Antibacterial Properties After five washes S. aur. (S. aureus; Anti-2 6%, #7409) | Durable Antibacterial Properties After ten washes S. aur. (S. aureus; Anti-2 6%, #7409) | Durable Antibacterial Properties After twenty washes S. aur. (S. aureus; Anti-2 6%, #7409) | Durable Antibacterial Properties After twenty washes S. aur. (S. aureus; [4]) | Durable Antibacterial Properties After fifteen washes S. aur. (S. aureus; Anti-2 10%, #400) | Durable Antibacterial Properties After five washes S. aur. (S. aureus; Anti-2 10%, #400) | Durable Antibacterial Properties After ten washes S. aur. (S. aureus; Anti-2 10%, #400) | Durable Antibacterial Properties After twenty washes S. aur. (S. aureus; Anti-2 10%, #400) | Durable Antibacterial Properties After twenty washes S. aur. (S. aureus; [5]) | Durable Antibacterial Properties After fifteen washes S. aur. (S. aureus; Anti-2 10%, #7409) | Durable Antibacterial Properties After five washes S. aur. (S. aureus; Anti-2 10%, #7409) | Durable Antibacterial Properties After ten washes S. aur. (S. aureus; Anti-2 10%, #7409) | Durable Antibacterial Properties After twenty washes S. aur. (S. aureus; Anti-2 10%, #7409) | Durable Antibacterial Properties After twenty washes S. aur. (S. aureus; [6]) | Durable Antibacterial Properties After fifteen washes E. coli (E. coli; Anti-2 2%, #400) | Durable Antibacterial Properties After five washes E. coli (E. coli; Anti-2 2%, #400) | Durable Antibacterial Properties After ten washes E. coli (E. coli; Anti-2 2%, #400) | Durable Antibacterial Properties After twenty washes E. coli (E. coli; Anti-2 2%, #400) | Durable Antibacterial Properties After twenty washes E. coli (E. coli; [1]) | Durable Antibacterial Properties After fifteen washes E. coli (E. coli; Anti-2 2%, #7409) | Durable Antibacterial Properties After five washes E. coli (E. coli; Anti-2 2%, #7409) | Durable Antibacterial Properties After ten washes E. coli (E. coli; Anti-2 2%, #7409) | Durable Antibacterial Properties After twenty washes E. coli (E. coli; Anti-2 2%, #7409) | Durable Antibacterial Properties After twenty washes E. coli (E. coli; [2]) | Durable Antibacterial Properties After fifteen washes E. coli (E. coli; Anti-2 6%, #400) | Durable Antibacterial Properties After five washes E. coli (E. coli; Anti-2 6%, #400) | Durable Antibacterial Properties After ten washes E. coli (E. coli; Anti-2 6%, #400) | Durable Antibacterial Properties After twenty washes E. coli (E. coli; Anti-2 6%, #400) | Durable Antibacterial Properties After twenty washes E. coli (E. coli; [3]) | Durable Antibacterial Properties After fifteen washes E. coli (E. coli; Anti-2 6%, #7409) | Durable Antibacterial Properties After five washes E. coli (E. coli; Anti-2 6%, #7409) | Durable Antibacterial Properties After ten washes E. coli (E. coli; Anti-2 6%, #7409) | Durable Antibacterial Properties After twenty washes E. coli (E. coli; Anti-2 6%, #7409) | Durable Antibacterial Properties After twenty washes E. coli (E. coli; [4]) | Durable Antibacterial Properties After fifteen washes E. coli (E. coli; Anti-2 10%, #400) | Durable Antibacterial Properties After five washes E. coli (E. coli; Anti-2 10%, #400) | Durable Antibacterial Properties After ten washes E. coli (E. coli; Anti-2 10%, #400) | Durable Antibacterial Properties After twenty washes E. coli (E. coli; Anti-2 10%, #400) | Durable Antibacterial Properties After twenty washes E. coli (E. coli; [5]) | Durable Antibacterial Properties After fifteen washes E. coli (E. coli; Anti-2 10%, #7409) | Durable Antibacterial Properties After five washes E. coli (E. coli; Anti-2 10%, #7409) | Durable Antibacterial Properties After ten washes E. coli (E. coli; Anti-2 10%, #7409) | Durable Antibacterial Properties After twenty washes E. coli (E. coli; Anti-2 10%, #7409) | Durable Antibacterial Properties After twenty washes E. coli (E. coli; [6])
